Results: patent US12059400B2, “Medical compound” (VERA SALUS RICERCA S.R.L., priority 2017, dated 2024)

What was measured:
[1] = test system: human colon carcinoma cells (HCT116); assay: Cell proliferation, crystal violet method; format: cell-based
Description: (§1) The compound according to the invention, and in particular the synthetic quercetin derivatives described and illustrated herein were investigated in vitro by using human tumour cells and assessing their impact on the tumour proliferative capacity, with regard to the tumours described above. In particular, the following human tumour cell lines were assessed experimentally: 1) HCT116, colon adenocarcinoma cells; 2) H1299, lung adenocarcinoma cells; 3) A375, melanoma cells, and 4) A431, squamous skin cell carcinoma; 5) 786-0, renal carcinoma cells; 6) PC3, prostate carcinoma cells; 7) BT549, mammary carcinoma cells; 8) CAL27, tongue carcinoma cells (belonging to the head-and-neck carcinomas); 9) HepG2, hepatocellular carcinoma cells; 10) PANC-1, pancreas carcinoma cells; 11) T24, bladder carcinoma cells; 12) OVCAR-3, ovarian carcinoma cells. In addition, a normal human cell line, WS1 (skin fibroblasts) was also treated with the novel synthetic compounds.
(§2) Cell proliferation was quantified by the crystal violet method with a spectrophotometer. In short, after acquiring serial images (0, 24 and 48 hrs) with the EVOS XL Cell Imaging System microscope (Thermo Fisher Scientific), the cells imaged at 48 hrs were fixed with paraformaldehyde (4%) and stained with Crystal Violet (1%). Then, the specific absorbance (λ=590 nm) at 48 hrs was measured with a spectrophotometer (Infinite®200 PRO, Tecan). Data analysis was carried out by using ad-hoc Excel files for graphical representation and statistical processing (t-test). Moreover, the results obtained with Crystal Violet were confirmed by using another cell proliferation assessment method based on the real time cellular analyzer XCELLigence RTCA DP (ACEA Biosciences, Inc.). This tool allows cell growth to be monitored from electrical impedance-derived quantitative values (the so-called Cell Index) measured by tiny electrodes located at the base of the culture wells. Proliferation is monitored for several days (5-7) by setting a Cell Index per minute measure on the instrument. The data are analysed by processing various parameters calculated by the dedicated software, such as the cell duplication time, the slope and the Max Cell Index.
(§3) Cell proliferation was quantitated spectrophotometrically by the crystal violet method.

[2] = test system: human melanoma cells (A375); assay: Cell proliferation, crystal violet method; format: cell-based
Description: as §1, §2, §3

[3] = test system: human colon carcinoma cells (HCT116); assay: Intracellular ROS levels, DCFH2-DA probe; format: cell-based; conditions: 2 hrs of treatment; at the respective anti-proliferative IC50s; DCF fluorescence in A.U.; FIG. 22 left
Description: Intracellular ROS levels were measured in tumour cells by using the probe 2,7-dichlorodihydrofluorescein diacetate (DCFH2-DA) and a fluorescence spectrophotometer. DCFH2-DA diffuses readily through the cell membrane into the cytosolic space of the cell where it is hydrolyzed by intracellular esterases into the non-permeable DCFH2 product. DCFH2 oxidation by intracellular ROS (mainly H2O2, HO·, ROO·, NO· and ONOO) results in the production of intracellular fluorescent DCF, whose concentration is directly proportional to the levels of ROS in the cell. […] All the experiments were repeated at least 3 times. Data analysis was carried out with GraphPad Prism 6 for graphical representation and statistical processing (1-way ANOVA test).

[4] = test system: human skin fibroblasts (WS1); assay: Cell proliferation of normal cells, crystal violet method; format: cell-based; conditions: at the indicated concentrations (not given); FIG. 17
Description: The compound according to the invention, and in particular the synthetic quercetin derivatives described and illustrated herein were investigated in vitro by using human tumour cells and assessing their impact on the tumour proliferative capacity, with regard to the tumours described above. In particular, the following human tumour cell lines were assessed experimentally: 1) HCT116, colon adenocarcinoma cells; 2) H1299, lung adenocarcinoma cells; 3) A375, melanoma cells, and 4) A431, squamous skin cell carcinoma; 5) 786-0, renal carcinoma cells; 6) PC3, prostate carcinoma cells; 7) BT549, mammary carcinoma cells; 8) CAL27, tongue carcinoma cells (belonging to the head-and-neck carcinomas); 9) HepG2, hepatocellular carcinoma cells; 10) PANC-1, pancreas carcinoma cells; 11) T24, bladder carcinoma cells; 12) OVCAR-3, ovarian carcinoma cells. In addition, a normal human cell line, WS1 (skin fibroblasts) was also treated with the novel synthetic compounds. Cell proliferation was quantified by the crystal violet method with a spectrophotometer. In short, after acquiring serial images (0, 24 and 48 hrs) with the EVOS XL Cell Imaging System microscope (Thermo Fisher Scientific), the cells imaged at 48 hrs were fixed with paraformaldehyde (4%) and stained with Crystal Violet (1%). Then, the specific absorbance (λ=590 nm) at 48 hrs was measured with a spectrophotometer (Infinite®200 PRO, Tecan). Data analysis was carried out by using ad-hoc Excel files for graphical representation and statistical processing (t-test). […] This tool allows cell growth to be monitored from electrical impedance-derived quantitative values (the so-called Cell Index) measured by tiny electrodes located at the base of the culture wells. Proliferation is monitored for several days (5-7) by setting a Cell Index per minute measure on the instrument. The data are analysed by processing various parameters calculated by the dedicated software, such as the cell duplication time, the slope and the Max Cell Index.

[5] = test system: human ovarian carcinoma cells (OVCAR-3); assay: Cell proliferation, crystal violet method; format: cell-based; conditions: 60 μM; FIG. 11a, 11b
Description: as §1, §2, §3

[6] = test system: SCC cells (A431); assay: Cell proliferation, crystal violet method; format: cell-based, human; conditions: 90 μM; FIG. 2a, 2b
Description: (§4) The compound according to the invention, and in particular the synthetic quercetin derivatives described and illustrated herein were investigated in vitro by using human tumour cells and assessing their impact on the tumour proliferative capacity, with regard to the tumours described above. In particular, the following human tumour cell lines were assessed experimentally: 1) HCT116, colon adenocarcinoma cells; 2) H1299, lung adenocarcinoma cells; 3) A375, melanoma cells, and 4) A431, squamous skin cell carcinoma; 5) 786-0, renal carcinoma cells; 6) PC3, prostate carcinoma cells; 7) BT549, mammary carcinoma cells; 8) CAL27, tongue carcinoma cells (belonging to the head-and-neck carcinomas); 9) HepG2, hepatocellular carcinoma cells; 10) PANC-1, pancreas carcinoma cells; 11) T24, bladder carcinoma cells; 12) OVCAR-3, ovarian carcinoma cells. In addition, a normal human cell line, WS1 (skin fibroblasts) was also treated with the novel synthetic compounds. Cell proliferation was quantified by the crystal violet method with a spectrophotometer. In short, after acquiring serial images (0, 24 and 48 hrs) with the EVOS XL Cell Imaging System microscope (Thermo Fisher Scientific), the cells imaged at 48 hrs were fixed with paraformaldehyde (4%) and stained with Crystal Violet (1%). Then, the specific absorbance (λ=590 nm) at 48 hrs was measured with a spectrophotometer (Infinite®200 PRO, Tecan). Data analysis was carried out by using ad-hoc Excel files for graphical representation and statistical processing (t-test). Moreover, the results obtained with Crystal Violet were confirmed by using another cell proliferation assessment method based on the real time cellular analyzer XCELLigence RTCA DP (ACEA Biosciences, Inc.). This tool allows cell growth to be monitored from electrical impedance-derived quantitative values (the so-called Cell Index) measured by tiny electrodes located at the base of the culture wells. Proliferation is monitored for several days (5-7) by setting a Cell Index per minute measure on the instrument. The data are analysed by processing various parameters calculated by the dedicated software, such as the cell duplication time, the slope and the Max Cell Index. […] Cell proliferation was quantitated spectrophotometrically by the crystal violet method.

[7] = test system: human bladder carcinoma cells (T24); assay: Cell proliferation, crystal violet method; format: cell-based; conditions: 80 μM; FIG. 10a, 10b
Description: as §4

[8] = test system: human pancreatic carcinoma cells (PANC-1); assay: Cell proliferation, crystal violet method; format: cell-based; conditions: 80 μM; FIG. 9a, 9b
Description: as §4

[9] = test system: human prostate carcinoma cells (PC3); assay: Cell proliferation, crystal violet method; format: cell-based; conditions: 80 μM; FIG. 5a, 5b
Description: as §4

[10] = test system: human renal carcinoma cells (786-0); assay: Cell proliferation, crystal violet method; format: cell-based; conditions: 80 μM; FIG. 4a, 4b
Description: as §4

[11] = test system: human melanoma cells (A375); assay: Cell cycle progression, propidium iodide method, cytofluorimeter; format: cell-based; conditions: 24 hrs; at the respective anti-proliferative IC50s; FIG. 19
Description: Progression through the tumour cell cycle was assessed by the propidium iodide method and quantification of the cell DNA content with a cytofluorimeter. Briefly, after treatment (in duplicate) with the test compounds (24 hrs), the tumour cells were washed (with PBS), detached with trypsin-EDTA and pelleted by centrifugation (125 g for 6 min). The cells were then fixed in ethanol (70%) and stored in the freezer (−20° C.) for 1-3 days. After further washing (PBS) and treatment with RNAse (50 ug/ml), the cells were contacted (on ice in the dark; 30 min) with propidium iodide (50 μg/ml). FL2 and FL3 cytofluorimeter readings analysed approximately 50,000 cells (1 μl/second) per sample. Statistical analysis and graphical representation were performed by using t-tests and preset Excel property files.

SMILES | HCT116 cell growth vs vehicle control ([1]; 10 μM and 30 μM, FIG. 15) | IC50 ([1]; Homo sapiens, HCT-116, crystal violet, spectrophotometer, read-out: IC50 anti-proliferative effect, CRC (HCT116)) [µM] | A375 cell growth vs vehicle control ([2]; 10 μM and 30 μM, FIG. 14) | IC50 ([2]; Homo sapiens, A-375, crystal violet, spectrophotometer, read-out: IC50 anti-proliferative effect, Melanoma (A375)) [µM] | intracellular ROS levels in HCT116 cells [3] | proliferation of normal human skin fibroblasts (WS1) vs vehicle control [4] | OVCAR-3 cell growth vs vehicle control [5] | A431 cell growth vs vehicle control [6] | T24 cell growth vs vehicle control [7] | PANC-1 cell growth vs vehicle control [8] | PC3 cell growth vs vehicle control [9] | 786-0 cell growth vs vehicle control [10] | halt of A375 tumour cells in S and/or G2 of the cell cycle [11]
O=C(NCCOCCOc1c(-c2ccc(O)c(O)c2)oc2cc(O)cc(O)c2c1=O)c1ccc(-c2ccc(C(=O)NCCOCCOc3c(-c4ccc(O)c(O)c4)oc4cc(O)cc(O)c4c3=O)cc2)cc1 [Compound 19b] | significantly inhibited | 5.51 | significantly inhibited | 9.48 | significantly raise | – | – | – | – | – | – | – | –
O=c1cc(-c2ccc(O)cc2)oc2cc(O)cc(O)c12 [apigenin] | – | – | – | – | – | significantly inhibits | – | – | – | – | – | – | –
O=c1c(O)c(-c2ccc(O)c(O)c2)oc2cc(O)cc(O)c12 [quercetin, Quercetin, reference compound] | – | – | – | – | has no effect | do not disrupt | has no effect | has no effect | has no effect | has no effect | modest anti-proliferative effects | has no effect | significantly halt
